Holding throughout (settings): 250 g/ha, evaluated after 13 days, five-point scale
The test system of assay [1] is Amaranthus retoflexus (AMARE). Nature of the assay: Pre-emergence herbicidal glasshouse test. The class given is in vivo.
Assay [2] relates to Ipomoea hederacea (IPOHE). In words: Pre-emergence herbicidal glasshouse test. Type of assay: in vivo.
In assay [3] the test system is Setaria faberi (SETFA). In words: Post-emergence herbicidal glasshouse test. Type of assay: in vivo.
Assay [4] deals with Ipomoea hederacea (IPOHE). Nature of the assay: Post-emergence herbicidal glasshouse test. Type of assay: in vivo.
In assay [5] the test system is Echinochloa crus-galli (ECHCG). Nature of the assay: Pre-emergence herbicidal glasshouse test. The class given is in vivo.
The test system of assay [6] is Amaranthus retoflexus (AMARE). In words: Post-emergence herbicidal glasshouse test. The class given is in vivo.
For assay [7], the system named is AMAPA. Nature of the assay: Pre-emergence herbicidal glasshouse test. The class given is in vivo, Amaranthus tuberculatus.
For assay [8], the system named is Setaria faberi (SETFA). In words: Pre-emergence herbicidal glasshouse test. The class given is in vivo.
Assay [9] relates to AMAPA. Nature of the assay: Post-emergence herbicidal glasshouse test. The class given is in vivo, Amaranthus tuberculatus.
Assay [10] has as its system Echinochloa crus-galli (ECHCG). In words: Post-emergence herbicidal glasshouse test. The class given is in vivo.

These results are taken from US20250179052A1, “PYRIMIDINYL-OXY-QUINOLINE BASED HERBICIDAL COMPOUNDS” (SYNGENTA CROP PROTECTION AG, priority 2022, published 2025).

`Cc1nc(C(F)(F)F)nc2cccc(Oc3ncc(Cl)cn3)c12` [Compound 1.001, 5-(5-chloropyrimidin-2-yl)oxy-4-methyl-2-(trifluoromethyl)quinazoline]: the “percentage damage caused to the plant, AMARE” value in assay [1] and in [6] was 5 (5=81-100%) throughout. Further, the “percentage damage caused to the plant, IPOHE” value in assay [2] is listed as 5 (5=81-100%); in assay [4], 2 (2=21-40%). In addition, the “percentage damage caused to the plant, SETFA” value is 4 (4=61-80%) with Setaria faberi (SETFA) [3] and 3 (3=41-60%) with Setaria faberi (SETFA) [8]. Further, the “percentage damage caused to the plant, ECHCG” value in assay [5] and in assay [10] was 3 (3=41-60%) throughout. The “percentage damage caused to the plant, AMAPA” value in the assay with AMAPA [7] and with AMAPA [9] was 5 (5=81-100%) throughout.

For the compound `FC(F)(F)c1ncc2c(Oc3ncc(Cl)cn3)cccc2n1` [Compound 1.002, 5-(5-chloropyrimidin-2-yl)oxy-2-(trifluoromethyl)quinazoline], the “percentage damage caused to the plant, AMARE” value in assay [1] and in [6] was 5 (5=81-100%) each time. Also, the “percentage damage caused to the plant, IPOHE” value in assay [2] was 5 (5=81-100%); in assay [4], 4 (4=61-80%). In addition, the results for the “percentage damage caused to the plant, SETFA” value with Setaria faberi (SETFA) [3] and in the assay on Setaria faberi (SETFA) [8] were 4 (4=61-80%) and 5 (5=81-100%), respectively. Moreover, the “percentage damage caused to the plant, ECHCG” value in assay [5] and in [10] was 5 (5=81-100%) in each case. The “percentage damage caused to the plant, AMAPA” value in the assay with AMAPA [7] and in the assay on AMAPA [9] was 5 (5=81-100%) in each case.

As to `N#Cc1cc(Cl)cnc1Oc1cccc2nc(C(F)(F)F)ncc12` [Compound 1.007], the “percentage damage caused to the plant, AMARE” value in [1] is recorded as 4 (4=61-80%); in assay [6] it was 2 (2=21-40%). The “percentage damage caused to the plant, IPOHE” value in assay [2] and in assay [4] was 2 (2=21-40%) each time. The “percentage damage caused to the plant, SETFA” value in the assay with Setaria faberi (SETFA) [3] was 4 (4=61-80%); with Setaria faberi (SETFA) [8], 5 (5=81-100%). Further, the “percentage damage caused to the plant, ECHCG” value in assay [5] is on record as 4 (4=61-80%); in assay [10] it was 3 (3=41-60%). Further, the “percentage damage caused to the plant, AMAPA” value in the assay on AMAPA [7] is 4 (4=61-80%).

For the compound `Cc1ccc(Oc2ncc(F)cn2)c2cnc(C(F)(F)Cl)nc12` [Compound 1.049], the entries for the “percentage damage caused to the plant, AMARE” value in assay [1] and in assay [6] were 1 (1=0-20%) and 2 (2=21-40%), respectively. In addition, the “percentage damage caused to the plant, IPOHE” value in assay [2] is given as 1 (1=0-20%); in assay [4] it was 2 (2=21-40%). Besides, the “percentage damage caused to the plant, ECHCG” value in assay [5] and in assay [10] was 1 (1=0-20%) throughout. For the same compound, the entries for the “percentage damage caused to the plant, AMAPA” value with AMAPA [7] and in the assay on AMAPA [9] were 1 (1=0-20%) and 3 (3=41-60%), respectively.

Take `Cc1nc(C(F)F)nc2cccc(Oc3ncc(Br)cn3)c12` [Compound 1.051]: the “percentage damage caused to the plant, AMARE” value in assay [1] and in assay [6] was 1 (1=0-20%) each time. Further, the “percentage damage caused to the plant, IPOHE” value in assay [2] and in [4] was 1 (1=0-20%) throughout. Besides, the “percentage damage caused to the plant, ECHCG” value in assay [5] and in assay [10] was 1 (1=0-20%) each time. The “percentage damage caused to the plant, AMAPA” value in the assay on AMAPA [7] and with AMAPA [9] was 1 (1=0-20%) in each case.

As to `Cc1nc(C(F)F)nc2cccc(Oc3ncc(F)cn3)c12` [Compound 1.052], the “percentage damage caused to the plant, AMARE” value in assay [1] was 2 (2=21-40%); in [6] it was 1 (1=0-20%). Besides, the “percentage damage caused to the plant, IPOHE” value was 1 (1=0-20%) in assay [2] and 2 (2=21-40%) in [4]. Moreover, the “percentage damage caused to the plant, ECHCG” value in assay [5] is on record as 2 (2=21-40%); in [10], 1 (1=0-20%). Besides, the “percentage damage caused to the plant, AMAPA” value in the assay on AMAPA [7] and in the assay with AMAPA [9] was 1 (1=0-20%) in each case.

In the case of `FC(F)c1ncc2c(Oc3ncc(Cl)cn3)ccc(Cl)c2n1` [Compound 1.054], the “percentage damage caused to the plant, AMARE” value in [1] is 5 (5=81-100%); in assay [6], 2 (2=21-40%). Moreover, the “percentage damage caused to the plant, IPOHE” value in assay [2] and in [4] was 1 (1=0-20%) throughout. Besides, the figures for the “percentage damage caused to the plant, ECHCG” value in [5] and in [10] were 2 (2=21-40%) and 1 (1=0-20%), respectively. Further, the “percentage damage caused to the plant, AMAPA” value in the assay on AMAPA [7] is listed as 5 (5=81-100%); in the assay with AMAPA [9], 2 (2=21-40%).

On to `FC(F)(Cl)c1ncc2c(Oc3ncc(Br)cn3)cccc2n1` [Compound 1.055, 5-(5-bromopyrimidin-2-yl)oxy-2-[chloro(difluoro)methyl]quinazoline], for which the “percentage damage caused to the plant, AMARE” value in assay [1] is given as 5 (5=81-100%); in assay [6] it was 2 (2=21-40%). Also, the “percentage damage caused to the plant, IPOHE” value in assay [2] and in assay [4] was 2 (2=21-40%) throughout. Besides, the “percentage damage caused to the plant, ECHCG” value was 4 (4=61-80%) in assay [5] and 2 (2=21-40%) in assay [10]. Further, the entries for the “percentage damage caused to the plant, AMAPA” value in the assay on AMAPA [7] and with AMAPA [9] were 5 (5=81-100%) and 3 (3=41-60%), respectively.

`Cc1cnc(Oc2cccc3nc(C(F)(F)Cl)ncc23)nc1` [Compound 1.056, 2-[chloro(difluoro)methyl]-5-(5-methylpyrimidin-2-yl)oxy-quinazoline]: the “percentage damage caused to the plant, AMARE” value in [1] is on record as 5 (5=81-100%); in [6], 2 (2=21-40%). The “percentage damage caused to the plant, IPOHE” value is on record as 5 (5=81-100%) in assay [2] and 4 (4=61-80%) in [4]. In addition, the “percentage damage caused to the plant, ECHCG” value in assay [5] is on record as 5 (5=81-100%); in [10], 3 (3=41-60%). In addition, the “percentage damage caused to the plant, AMAPA” value in the assay with AMAPA [7] is given as 5 (5=81-100%); in the assay with AMAPA [9], 4 (4=61-80%).

For `FC(F)(Cl)c1ncc2c(Oc3ncc(Cl)cn3)cccc2n1` [Compound 1.057], the “percentage damage caused to the plant, AMARE” value in assay [1] was 5 (5=81-100%); in [6] it was 4 (4=61-80%). Also, the “percentage damage caused to the plant, IPOHE” value in assay [2] is listed as 5 (5=81-100%); in assay [4] it was 4 (4=61-80%). Further, the “percentage damage caused to the plant, ECHCG” value in assay [5] is listed as 5 (5=81-100%); in assay [10] it was 4 (4=61-80%). Besides, the “percentage damage caused to the plant, AMAPA” value in the assay on AMAPA [7] was 5 (5=81-100%); in the assay on AMAPA [9], 4 (4=61-80%).

For `Fc1cnc(Oc2cccc3nc(C(F)F)ncc23)nc1` [Compound 1.058], the “percentage damage caused to the plant, AMARE” value is reported as 5 (5=81-100%) in assay [1] and 2 (2=21-40%) in [6]. Further, the “percentage damage caused to the plant, IPOHE” value is 3 (3=41-60%) in [2] and 4 (4=61-80%) in assay [4]. Moreover, the “percentage damage caused to the plant, ECHCG” value in assay [5] and in [10] was 1 (1=0-20%) each time. Also, the entries for the “percentage damage caused to the plant, AMAPA” value in the assay with AMAPA [7] and with AMAPA [9] were 5 (5=81-100%) and 2 (2=21-40%), respectively.

As for `Fc1cnc(Oc2cccc3nc(C(F)(F)Cl)ncc23)nc1` [Compound 1.061, 2-[chloro(difluoro)methyl]-5-(5-fluoropyrimidin-2-yl)oxy-quinazoline], the “percentage damage caused to the plant, AMARE” value in assay [1] is given as 5 (5=81-100%); in assay [6] it was 4 (4=61-80%). Moreover, the “percentage damage caused to the plant, IPOHE” value is 5 (5=81-100%) in assay [2] and 4 (4=61-80%) in assay [4]. For the same compound, the “percentage damage caused to the plant, ECHCG” value in [5] is given as 5 (5=81-100%); in [10], 4 (4=61-80%). Further, the “percentage damage caused to the plant, AMAPA” value is reported as 5 (5=81-100%) with AMAPA [7] and 4 (4=61-80%) in the assay with AMAPA [9].

`N#Cc1ccc(Oc2ncc(Cl)cn2)c2cnc(C(F)(F)F)nc12` [Compound 1.065]: the “percentage damage caused to the plant, AMARE” value in assay [1] and in assay [6] was 1 (1=0-20%) each time. In addition, the “percentage damage caused to the plant, IPOHE” value is 1 (1=0-20%) in assay [2] and 2 (2=21-40%) in [4]. In addition, the “percentage damage caused to the plant, ECHCG” value in assay [5] and in [10] was 1 (1=0-20%) throughout. Also, the “percentage damage caused to the plant, AMAPA” value in the assay with AMAPA [7] and in the assay with AMAPA [9] was 1 (1=0-20%) throughout.

Turning to `Cc1cc(C(F)(F)F)nc2cccc(Oc3ncc(Cl)cc3F)c12` [Compound 1.066], the “percentage damage caused to the plant, AMARE” value in assay [1] and in assay [6] was 1 (1=0-20%) throughout. In addition, the “percentage damage caused to the plant, IPOHE” value in [2] and in assay [4] was 1 (1=0-20%) throughout. The “percentage damage caused to the plant, ECHCG” value in assay [5] and in [10] was 1 (1=0-20%) each time. Further, the “percentage damage caused to the plant, AMAPA” value with AMAPA [7] and in the assay with AMAPA [9] was 1 (1=0-20%) in each case.
